Reference: PMC12749626, “Expediting hit-to-lead progression in drug discovery through reaction prediction and multi-dimensional optimization” (Nature Communications, 2025)
In brackets after ≈: the same amount, converted by molar mass.

Tests used:
ABL1 = ABL1 (Homo sapiens, UniProt P00519); assay: biochemical; conditions: read-out: ABL1 percent activity or inhibition compared to the assay reference
DOPAMINE D2 REC. (short) = DOPAMINE D2 REC. (short) (Homo sapiens, UniProt P14416); assay: biochemical; conditions: read-out: DOPAMINE D2 REC. (short) percent activity or inhibition compared to the assay reference
HISTAMINE H1 REC. = HISTAMINE H1 REC. (Homo sapiens, UniProt P35367); assay: biochemical; conditions: read-out: HISTAMINE H1 REC. percent activity or inhibition compared to the assay reference
GSK-3A = GSK-3A (Homo sapiens, UniProt P49840); assay: biochemical; conditions: read-out: GSK-3A percent activity or inhibition compared to the assay reference
MONOAMINE OXIDASE-A = MONOAMINE OXIDASE-A (Homo sapiens, UniProt P21397); assay: biochemical; conditions: read-out: MONOAMINE OXIDASE-A percent activity or inhibition compared to the assay reference
NORE[…]. = NORE[…]. (Homo sapiens, UniProt P23975); assay: biochemical; conditions: read-out: NORE[…]. percent activity or inhibition compared to the assay reference
HIV-1 PROTEASE = HIV-1 PROTEASE (Human immunodeficiency virus type 1 group M subtype B, UniProt P04585); assay: biochemical; conditions: read-out: HIV-1 PROTEASE percent activity or inhibition compared to the assay reference
HISTAMINE H2 REC. = HISTAMINE H2 REC. (Homo sapiens, UniProt P25021); assay: biochemical; conditions: read-out: HISTAMINE H2 REC. percent activity or inhibition compared to the assay reference
ABCB1 (MDR1, human P-gp) = ABCB1 (MDR1, human P-gp) (Homo sapiens, UniProt P08183); assay: P-glycoprotein (P-gp) assay in LLC-PK1 cells transfected with ABCB1; conditions: for Papp A→B: human, LLC-PK1
DOPAMINE D1 REC. = DOPAMINE D1 REC. (Homo sapiens, UniProt P21728); assay: biochemical; conditions: read-out: DOPAMINE D1 REC. percent activity or inhibition compared to the assay reference
CDK2 = CDK2 (Homo sapiens, UniProt P24941); assay: biochemical; conditions: read-out: CDK2 percent activity or inhibition compared to the assay reference
CHOLECYSTOKININ 1 REC. = CHOLECYSTOKININ 1 REC. (Homo sapiens, UniProt P32238); assay: biochemical; conditions: read-out: CHOLECYSTOKININ 1 REC. percent activity or inhibition compared to the assay reference
CYP3A4 = CYP3A4 (Homo sapiens, UniProt P08684); assay: Cytochrome P450 inhibition assay, CYP3A4; conditions: liver microsomes
Hepatocyte clearance = conditions: for hepatocyte CLint at 1 µM: human, hepatocytes
PROSTAGLANDIN F REC. = PROSTAGLANDIN F REC. (Homo sapiens, UniProt P43088); assay: biochemical; conditions: read-out: PROSTAGLANDIN F REC. percent activity or inhibition compared to the assay reference
ANGIOTENSIN II REC. 1 = ANGIOTENSIN II REC. 1 (Homo sapiens, UniProt P30556); assay: biochemical; conditions: read-out: ANGIOTENSIN II REC. 1 percent activity or inhibition compared to the assay reference
GSK-3B = GSK-3B (Homo sapiens, UniProt P49841); assay: biochemical; conditions: read-out: GSK-3B percent activity or inhibition compared to the assay reference
ANDROGEN REC. = ANDROGEN REC. (Homo sapiens, UniProt P10275); assay: biochemical; conditions: read-out: ANDROGEN REC. percent activity or inhibition compared to the assay reference
GLUC[…]. [1] = molecular target: T1, GLUC[…]. (Homo sapiens, UniProt P04150); assay: biochemical; conditions: read-out: GLUC[…]. percent activity or inhibition compared to the assay reference
SEROTONIN TRANSPORTER = SEROTONIN TRANSPORTER (Homo sapiens, UniProt P31645); assay: biochemical; conditions: read-out: SEROTONIN TRANSPORTER percent activity or inhibition compared to the assay reference
α2A-ADRENOCEPTOR = α2A-ADRENOCEPTOR (Homo sapiens, UniProt P08913); assay: biochemical; conditions: read-out: α2A-ADRENOCEPTOR percent activity or inhibition compared to the assay reference
A[…]. ENZ. = A[…]. ENZ. (Homo sapiens, UniProt P12821); assay: biochemical; conditions: read-out: A[…]. ENZ. percent activity or inhibition compared to the assay reference
ZAP70 = ZAP70 (Homo sapiens, UniProt P43403); assay: biochemical; conditions: read-out: ZAP70 percent activity or inhibition compared to the assay reference
CA2+ CHANNEL (L-TYPE) = conditions: 10 uM; n=2
MUSCULAR NICOTINIC REC. = conditions: 10 uM; n=2
PCP NMDA REC. = conditions: 10 uM; n=2
Solubility in FESSIF = format: physicochemical
GABA-A (BENZ[…]) = conditions: 10 uM; n=2
ADENOSINE A1 REC. = ADENOSINE A1 REC. (Homo sapiens, UniProt P30542); conditions: 10 uM; n=2
GLUC[…]. [2] = molecular target: T1, GLUC[…].; conditions: 10 uM; n=2
PHOSPHODIESTERASE 4D2 = PHOSPHODIESTERASE 4D2 (Homo sapiens, UniProt Q08499); conditions: 10 uM; n=2

Chain of DOPAMINE D2 REC. (short) (P14416 1-414 isoform P14416-2): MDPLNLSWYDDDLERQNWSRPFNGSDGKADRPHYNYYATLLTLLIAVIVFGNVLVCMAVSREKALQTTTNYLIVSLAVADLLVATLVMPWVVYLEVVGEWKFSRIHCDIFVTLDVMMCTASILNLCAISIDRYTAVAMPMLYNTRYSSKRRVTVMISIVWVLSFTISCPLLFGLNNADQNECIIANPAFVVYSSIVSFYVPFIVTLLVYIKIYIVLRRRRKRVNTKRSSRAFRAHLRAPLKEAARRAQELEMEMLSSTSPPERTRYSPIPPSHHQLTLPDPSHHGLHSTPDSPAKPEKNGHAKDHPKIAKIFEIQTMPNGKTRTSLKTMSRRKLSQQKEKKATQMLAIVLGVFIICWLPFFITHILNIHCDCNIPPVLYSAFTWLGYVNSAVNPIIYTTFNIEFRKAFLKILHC
Chain of DOPAMINE D1 REC. (P21728 whole entry): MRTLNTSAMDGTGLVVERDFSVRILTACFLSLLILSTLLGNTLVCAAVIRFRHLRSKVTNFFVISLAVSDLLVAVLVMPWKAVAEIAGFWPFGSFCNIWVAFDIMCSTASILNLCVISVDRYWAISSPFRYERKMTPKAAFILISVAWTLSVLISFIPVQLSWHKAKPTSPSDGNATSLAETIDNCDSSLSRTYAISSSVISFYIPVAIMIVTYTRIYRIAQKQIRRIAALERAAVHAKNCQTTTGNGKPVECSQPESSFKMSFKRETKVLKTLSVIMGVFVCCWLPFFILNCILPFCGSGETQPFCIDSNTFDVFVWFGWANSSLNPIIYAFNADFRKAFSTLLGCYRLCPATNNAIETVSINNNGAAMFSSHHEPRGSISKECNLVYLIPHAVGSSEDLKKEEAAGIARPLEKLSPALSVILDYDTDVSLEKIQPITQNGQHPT
Chain of CYP3A4 (P08684 whole entry): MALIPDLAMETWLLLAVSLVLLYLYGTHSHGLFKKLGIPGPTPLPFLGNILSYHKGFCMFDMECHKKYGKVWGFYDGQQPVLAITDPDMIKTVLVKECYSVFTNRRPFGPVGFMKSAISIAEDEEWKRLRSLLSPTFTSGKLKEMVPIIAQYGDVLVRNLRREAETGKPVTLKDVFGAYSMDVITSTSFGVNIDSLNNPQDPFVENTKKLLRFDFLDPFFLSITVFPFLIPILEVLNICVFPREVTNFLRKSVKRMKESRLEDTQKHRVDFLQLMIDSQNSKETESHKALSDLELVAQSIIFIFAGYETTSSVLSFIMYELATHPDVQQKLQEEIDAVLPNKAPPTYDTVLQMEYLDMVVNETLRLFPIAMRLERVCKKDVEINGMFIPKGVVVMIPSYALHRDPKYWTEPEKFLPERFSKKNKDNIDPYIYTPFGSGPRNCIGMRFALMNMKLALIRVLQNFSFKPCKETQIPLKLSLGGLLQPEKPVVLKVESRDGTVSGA
Chain of ABCB1 (MDR1, human P-gp) (P08183 whole entry): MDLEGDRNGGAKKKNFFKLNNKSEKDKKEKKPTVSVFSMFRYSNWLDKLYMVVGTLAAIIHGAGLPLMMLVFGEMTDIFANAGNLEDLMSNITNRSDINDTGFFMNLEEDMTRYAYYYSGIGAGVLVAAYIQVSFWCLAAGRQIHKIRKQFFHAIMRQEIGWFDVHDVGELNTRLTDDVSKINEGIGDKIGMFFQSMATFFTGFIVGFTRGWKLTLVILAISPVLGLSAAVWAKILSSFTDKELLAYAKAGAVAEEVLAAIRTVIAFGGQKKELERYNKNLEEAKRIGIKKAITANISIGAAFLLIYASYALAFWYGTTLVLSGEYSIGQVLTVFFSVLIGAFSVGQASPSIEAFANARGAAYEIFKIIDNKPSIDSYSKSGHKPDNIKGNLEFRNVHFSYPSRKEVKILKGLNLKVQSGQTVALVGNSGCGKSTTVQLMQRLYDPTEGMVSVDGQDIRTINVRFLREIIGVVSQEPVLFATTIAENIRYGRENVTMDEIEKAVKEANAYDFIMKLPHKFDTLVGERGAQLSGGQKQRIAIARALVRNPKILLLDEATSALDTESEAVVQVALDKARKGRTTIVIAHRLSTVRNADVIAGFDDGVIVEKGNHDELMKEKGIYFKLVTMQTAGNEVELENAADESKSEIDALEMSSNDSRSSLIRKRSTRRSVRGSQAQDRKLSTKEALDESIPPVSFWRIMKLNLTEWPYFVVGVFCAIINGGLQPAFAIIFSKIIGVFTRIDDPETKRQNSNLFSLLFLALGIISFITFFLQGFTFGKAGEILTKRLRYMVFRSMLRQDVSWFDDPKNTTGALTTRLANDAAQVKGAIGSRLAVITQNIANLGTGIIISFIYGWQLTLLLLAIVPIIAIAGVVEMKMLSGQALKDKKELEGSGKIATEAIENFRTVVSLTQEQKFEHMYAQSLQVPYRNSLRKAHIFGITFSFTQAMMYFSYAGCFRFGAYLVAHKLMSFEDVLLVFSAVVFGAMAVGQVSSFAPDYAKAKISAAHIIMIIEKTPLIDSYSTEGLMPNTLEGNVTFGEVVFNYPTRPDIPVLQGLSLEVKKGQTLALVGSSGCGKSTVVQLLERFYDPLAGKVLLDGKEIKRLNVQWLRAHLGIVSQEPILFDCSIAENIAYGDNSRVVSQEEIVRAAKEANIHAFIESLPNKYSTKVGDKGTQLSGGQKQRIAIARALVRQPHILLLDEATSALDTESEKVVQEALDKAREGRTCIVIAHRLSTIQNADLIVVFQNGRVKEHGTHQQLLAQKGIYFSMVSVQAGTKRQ
Chain of SEROTONIN TRANSPORTER (P31645 whole entry): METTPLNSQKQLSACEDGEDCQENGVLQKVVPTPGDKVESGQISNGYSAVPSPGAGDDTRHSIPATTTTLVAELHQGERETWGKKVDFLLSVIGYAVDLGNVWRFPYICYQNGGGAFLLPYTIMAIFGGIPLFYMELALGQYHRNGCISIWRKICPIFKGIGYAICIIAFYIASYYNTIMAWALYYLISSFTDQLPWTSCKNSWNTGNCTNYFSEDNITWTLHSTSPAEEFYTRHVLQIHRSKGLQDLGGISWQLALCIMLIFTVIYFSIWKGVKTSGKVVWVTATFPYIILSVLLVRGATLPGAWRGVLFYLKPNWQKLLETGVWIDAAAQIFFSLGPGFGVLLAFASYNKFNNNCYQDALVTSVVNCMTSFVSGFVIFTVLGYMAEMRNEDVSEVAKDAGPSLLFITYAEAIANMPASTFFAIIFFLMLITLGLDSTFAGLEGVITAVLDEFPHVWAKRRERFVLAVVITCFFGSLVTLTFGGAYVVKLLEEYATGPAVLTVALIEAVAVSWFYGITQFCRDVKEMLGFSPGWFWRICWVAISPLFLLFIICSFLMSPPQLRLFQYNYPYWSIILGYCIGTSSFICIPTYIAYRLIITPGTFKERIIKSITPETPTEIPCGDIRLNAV
Chain of ZAP70 (P43403 whole entry): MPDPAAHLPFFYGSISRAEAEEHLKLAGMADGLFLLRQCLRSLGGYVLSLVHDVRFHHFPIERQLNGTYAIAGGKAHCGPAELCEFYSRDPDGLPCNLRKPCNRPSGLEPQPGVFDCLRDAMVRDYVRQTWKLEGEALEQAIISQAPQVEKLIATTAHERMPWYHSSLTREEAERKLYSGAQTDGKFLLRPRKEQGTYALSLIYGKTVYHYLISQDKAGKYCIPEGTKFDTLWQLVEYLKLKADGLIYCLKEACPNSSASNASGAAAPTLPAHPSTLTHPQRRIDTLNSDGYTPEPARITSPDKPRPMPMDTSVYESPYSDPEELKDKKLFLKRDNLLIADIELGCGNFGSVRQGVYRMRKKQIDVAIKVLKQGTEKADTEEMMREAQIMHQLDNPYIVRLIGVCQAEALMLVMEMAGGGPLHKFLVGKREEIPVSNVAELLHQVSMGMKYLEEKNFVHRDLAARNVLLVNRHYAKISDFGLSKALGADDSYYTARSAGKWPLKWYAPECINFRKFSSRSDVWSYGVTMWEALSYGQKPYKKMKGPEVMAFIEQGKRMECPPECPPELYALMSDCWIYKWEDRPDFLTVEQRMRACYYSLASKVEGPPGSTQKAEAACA
Chain of UniProt P32238 (P32238 whole entry): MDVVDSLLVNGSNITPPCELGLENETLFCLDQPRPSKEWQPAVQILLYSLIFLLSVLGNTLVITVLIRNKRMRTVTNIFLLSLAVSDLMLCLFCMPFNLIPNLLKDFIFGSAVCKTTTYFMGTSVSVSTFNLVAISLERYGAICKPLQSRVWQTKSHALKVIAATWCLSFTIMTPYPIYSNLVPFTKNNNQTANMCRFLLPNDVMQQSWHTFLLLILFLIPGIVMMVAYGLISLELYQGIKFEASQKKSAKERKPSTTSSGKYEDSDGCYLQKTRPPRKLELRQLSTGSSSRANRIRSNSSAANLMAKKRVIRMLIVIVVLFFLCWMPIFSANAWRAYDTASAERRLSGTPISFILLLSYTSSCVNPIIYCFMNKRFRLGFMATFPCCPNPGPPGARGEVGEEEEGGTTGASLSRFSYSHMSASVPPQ
Chain of MONOAMINE OXIDASE-A (P21397 whole entry): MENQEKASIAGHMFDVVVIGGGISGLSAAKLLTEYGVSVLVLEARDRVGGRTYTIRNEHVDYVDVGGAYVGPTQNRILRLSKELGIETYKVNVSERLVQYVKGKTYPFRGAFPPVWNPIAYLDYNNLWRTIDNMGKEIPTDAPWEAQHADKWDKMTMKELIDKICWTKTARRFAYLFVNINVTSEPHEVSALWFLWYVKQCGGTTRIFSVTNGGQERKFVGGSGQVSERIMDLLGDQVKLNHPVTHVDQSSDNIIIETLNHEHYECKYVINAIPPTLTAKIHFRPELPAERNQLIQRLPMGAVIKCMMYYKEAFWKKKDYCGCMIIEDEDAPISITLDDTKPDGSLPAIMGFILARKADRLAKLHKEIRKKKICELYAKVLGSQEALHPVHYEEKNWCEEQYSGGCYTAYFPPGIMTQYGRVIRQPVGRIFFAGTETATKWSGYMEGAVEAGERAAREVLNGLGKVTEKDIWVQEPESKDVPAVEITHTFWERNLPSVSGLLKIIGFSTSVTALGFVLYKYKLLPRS

Row | SMILES | inhibition at 10 µM (ABL1) [%] | inhibition at 10 µM (DOPAMINE D2 REC. (short)) [%] | inhibition at 10 µM (HISTAMINE H1 REC.) [%] | inhibition at 10 µM (GSK-3A) [%] | inhibition at 10 µM (MONOAMINE OXIDASE-A) [%] | inhibition at 10 µM (NORE[…].) [%] | inhibition at 10 µM (HIV-1 PROTEASE) [%] | inhibition at 10 µM (HISTAMINE H2 REC.) [%] | Papp A→B (ABCB1 (MDR1, human P-gp)) [×10⁻⁶ cm/s] | inhibition at 10 µM (DOPAMINE D1 REC.) [%] | inhibition at 10 µM (CDK2) [%] | inhibition at 10 µM (CHOLECYSTOKININ 1 REC.) [%] | CYP3A4 Inhibition (CYP3A4) [%] | hepatocyte CLint at 1 µM (Hepatocyte clearance) [µL/min/1e6 cells] | inhibition at 10 µM (PROSTAGLANDIN F REC.) [%] | inhibition at 10 µM (ANGIOTENSIN II REC. 1) [%] | inhibition at 10 µM (GSK-3B) [%] | inhibition at 10 µM (ANDROGEN REC.) [%] | inhibition at 10 µM (GLUC[…]. [1]) [%] | inhibition at 10 µM (SEROTONIN TRANSPORTER) [%] | also measured
1 | O=C(c1ccc2nc(-c3cccnc3)oc2c1)N1CCN(c2nc3ccccc3c(=O)[nH]2)CC1 [Compound 17] | 2 | -10 | 13 | 8 | 7 | 15 | 11 | 1 | 11.7 | 3 | 3 | -12 | 16 | 7.3 | -2 | -3 | -21 | 6 | -13 | -5 | inhibition at 10 µM (α2A-ADRENOCEPTOR): 7%; inhibition at 10 µM (A[…]. ENZ.): 16%; inhibition at 10 µM (ZAP70): -2%
2 | O=C(c1ccc2nc(-c3cnccc3C3CCCC3)oc2c1)N1CCN(c2nc3nc(Cl)ccc3o2)CC1 [Compound 23] | -8 | -15 | 11 | 1 | 2 | 15 | 31 | -1 | 8.9 | -1 | 8 | 9 | > 90 | 179 | -3 | 11 | -20 | -10 | -2 | 10 | CA2+ CHANNEL (L-TYPE) percent activity or inhibition compared to the assay reference (CA2+ CHANNEL (L-TYPE)): 73%; MUSCULAR NICOTINIC REC. percent activity or inhibition compared to the assay reference (MUSCULAR NICOTINIC REC.): 0%; PCP NMDA REC. percent activity or inhibition compared to the assay reference (PCP NMDA REC.): 7%; solubility (Solubility in FESSIF): 1.9 µg/mL (≈ 3.59 µM); GABA-A (BENZ[…]) percent activity or inhibition compared to the assay reference (GABA-A (BENZ[…])): 10%; inhibition at 10 µM (α2A-ADRENOCEPTOR): 3%; inhibition at 10 µM (A[…]. ENZ.): -17%; inhibition at 10 µM (ZAP70): -27%
3 | O=C(c1ccc2nc(-c3cnccc3C3(C4CCC4)CC3)oc2c1)N1CCN(c2nc3nc(Cl)ccc3o2)CC1 [Compound 27] | – | – | – | – | – | – | – | – | – | – | – | – | > 90 | – | – | – | – | – | – | – | CA2+ CHANNEL (L-TYPE) percent activity or inhibition compared to the assay reference (CA2+ CHANNEL (L-TYPE)): 90%; P-gp (ABCB1 (MDR1, human P-gp); apparent permeability, apical-to-basolateral, LLC-PK1 cells with human P-gp): 7.1 ×10⁻⁶ cm/s; MUSCULAR NICOTINIC REC. percent activity or inhibition compared to the assay reference (MUSCULAR NICOTINIC REC.): 2%; Hepatocyte clearance (Hepatocyte clearance; cryopreserved hepatocytes of human origin, 1 µM compound): 101.0 µL/min/10^6 cells; PCP NMDA REC. percent activity or inhibition compared to the assay reference (PCP NMDA REC.): 8%; ADENOSINE A1 REC. percent activity or inhibition compared to the assay reference (ADENOSINE A1 REC.): 13%; GABA-A (BENZ[…]) percent activity or inhibition compared to the assay reference (GABA-A (BENZ[…])): 9%; GLUC[…]. percent activity or inhibition compared to the assay reference (GLUC[…]. [2]): 5%; PHOSPHODIESTERASE 4D2 percent activity or inhibition compared to the assay reference (PHOSPHODIESTERASE 4D2): -7%
4 | O=C(c1ccc2nc(-c3cnccc3C3CCCC3)oc2c1)N1CC2(CC(n3cnc(C4CC4)n3)C2)C1 [Compound 29] | -5 | 4 | 18 | 16 | 0 | 22 | 31 | 11 | 13.2 | 7 | -6 | 8 | 84 | 181 | 21 | 15 | -19 | 7 | -6 | -11 | CA2+ CHANNEL (L-TYPE) percent activity or inhibition compared to the assay reference (CA2+ CHANNEL (L-TYPE)): 32%; MUSCULAR NICOTINIC REC. percent activity or inhibition compared to the assay reference (MUSCULAR NICOTINIC REC.): 24%; PCP NMDA REC. percent activity or inhibition compared to the assay reference (PCP NMDA REC.): -1%; solubility (Solubility in FESSIF): 25 µg/mL (≈ 50.5 µM); GABA-A (BENZ[…]) percent activity or inhibition compared to the assay reference (GABA-A (BENZ[…])): -1%; inhibition at 10 µM (α2A-ADRENOCEPTOR): 18%; inhibition at 10 µM (A[…]. ENZ.): -13%; inhibition at 10 µM (ZAP70): 5%
